Source: ChEMBL document CHEMBL4229459, “An efficient synthetic route for preparation of antimycobacterial wollamides and evaluation of their in vitro and in vivo efficacy” (Bioorg Med Chem Lett, 2018)
Residues, ends and D or L forms follow the SMILES beside them.

Test system: Mycobacterium tuberculosis
Assay: Antimycobacterial activity against Mycobacterium bovis BCG measured after 7 days
Type: functional, organism-based
Settings: variant bovis BCG, 168 h

| SMILES | IC50 |
| --- | --- |
| CC[C@@H](C)[C@@H]1NC(=O)[C@@H](CC(C)C)NC(=O)[C@H](CC(C)C)NC(=O)[C@H](Cc2c[nH]c3ccccc23)NC(=O)[C@@H](CCCN)NC(=O)[C@H](CC(N)=O)NC1=O | 2800 nM |
| CC(C)C[C@@H]1NC(=O)[C@H](Cc2c[nH]c3ccccc23)NC(=O)[C@@H](CCCN)NC(=O)[C@H](CC(N)=O)NC(=O)[C@H](C(C)C)NC(=O)[C@@H](CC(C)C)NC1=O (HELM PEPTIDE1{[NCCC[C@@H](N[*:1])C(=O)[*:2]].W.L.[dL].V.N}$PEPTIDE1,PEPTIDE1,1:R1-6:R2$$$V2.0) | 3100 nM |
